# Results from BigSolDB 2.1.
smiles,measurement,setting,value
O=C(O)CNC(=O)OCc1ccccc1,solubility (mole fraction),"in 2-butanone, 283.15 K",0.0371
same,solubility (mole fraction),"in 2-butanone, 288.15 K",0.0437
same,solubility (mole fraction),"in 2-butanone, 293.15 K",0.0508
same,solubility (mole fraction),"in 2-butanone, 298.15 K",0.0592
same,solubility (mole fraction),"in 2-butanone, 303.15 K",0.0692
same,solubility (mole fraction),"in 2-butanone, 308.15 K",0.082
same,solubility (mole fraction),"in 2-butanone, 313.15 K",0.0966
same,solubility (mole fraction),"in 2-butanone, 318.15 K",0.114
same,solubility (mole fraction),"in 2-butanone, 323.15 K",0.134
same,solubility (mole fraction),"in acetone, 283.15 K",0.0617
same,solubility (mole fraction),"in acetone, 288.15 K",0.0709
same,solubility (mole fraction),"in acetone, 293.15 K",0.0815
same,solubility (mole fraction),"in acetone, 298.15 K",0.0942
same,solubility (mole fraction),"in acetone, 303.15 K",0.108
same,solubility (mole fraction),"in acetone, 308.15 K",0.123
same,solubility (mole fraction),"in acetone, 313.15 K",0.14
same,solubility (mole fraction),"in acetone, 318.15 K",0.169
same,solubility (mole fraction),"in acetone, 323.15 K",0.197
same,solubility (mole fraction),"in acetonitrile, 283.15 K",0.0106
same,solubility (mole fraction),"in acetonitrile, 288.15 K",0.0132
same,solubility (mole fraction),"in acetonitrile, 293.15 K",0.0159
same,solubility (mole fraction),"in acetonitrile, 298.15 K",0.0198
same,solubility (mole fraction),"in acetonitrile, 303.15 K",0.0251
same,solubility (mole fraction),"in acetonitrile, 308.15 K",0.032
same,solubility (mole fraction),"in acetonitrile, 313.15 K",0.0408
same,solubility (mole fraction),"in acetonitrile, 318.15 K",0.052
same,solubility (mole fraction),"in acetonitrile, 323.15 K",0.067
same,solubility (mole fraction),"in ethanol, 283.15 K",0.0415
same,solubility (mole fraction),"in ethanol, 288.15 K",0.0499
same,solubility (mole fraction),"in ethanol, 293.15 K",0.0611
same,solubility (mole fraction),"in ethanol, 298.15 K",0.0767
same,solubility (mole fraction),"in ethanol, 303.15 K",0.0955
same,solubility (mole fraction),"in ethanol, 308.15 K",0.11
same,solubility (mole fraction),"in ethanol, 313.15 K",0.131
same,solubility (mole fraction),"in ethanol, 318.15 K",0.157
same,solubility (mole fraction),"in ethanol, 323.15 K",0.186
same,solubility (mole fraction),"in ethyl acetate, 283.15 K",0.0185
same,solubility (mole fraction),"in ethyl acetate, 288.15 K",0.0222
same,solubility (mole fraction),"in ethyl acetate, 293.15 K",0.026
same,solubility (mole fraction),"in ethyl acetate, 298.15 K",0.0308
same,solubility (mole fraction),"in ethyl acetate, 303.15 K",0.0369
same,solubility (mole fraction),"in ethyl acetate, 308.15 K",0.0442
same,solubility (mole fraction),"in ethyl acetate, 313.15 K",0.053
same,solubility (mole fraction),"in ethyl acetate, 318.15 K",0.0642
same,solubility (mole fraction),"in ethyl acetate, 323.15 K",0.0783
same,solubility (mole fraction),"in isobutanol, 283.15 K",0.0149
same,solubility (mole fraction),"in isobutanol, 288.15 K",0.0188
same,solubility (mole fraction),"in isobutanol, 293.15 K",0.0237
same,solubility (mole fraction),"in isobutanol, 298.15 K",0.0315
same,solubility (mole fraction),"in isobutanol, 303.15 K",0.0394
same,solubility (mole fraction),"in isobutanol, 308.15 K",0.0523
same,solubility (mole fraction),"in isobutanol, 313.15 K",0.0665
same,solubility (mole fraction),"in isobutanol, 318.15 K",0.0853
same,solubility (mole fraction),"in isobutanol, 323.15 K",0.109
same,solubility (mole fraction),"in isopropanol, 283.15 K",0.0261
same,solubility (mole fraction),"in isopropanol, 288.15 K",0.0338
same,solubility (mole fraction),"in isopropanol, 293.15 K",0.0449
same,solubility (mole fraction),"in isopropanol, 298.15 K",0.0566
same,solubility (mole fraction),"in isopropanol, 303.15 K",0.0707
same,solubility (mole fraction),"in isopropanol, 308.15 K",0.0864
same,solubility (mole fraction),"in isopropanol, 313.15 K",0.108
same,solubility (mole fraction),"in isopropanol, 318.15 K",0.133
same,solubility (mole fraction),"in isopropanol, 323.15 K",0.16
same,solubility (mole fraction),"in methanol, 283.15 K",0.0654
same,solubility (mole fraction),"in methanol, 288.15 K",0.0769
same,solubility (mole fraction),"in methanol, 293.15 K",0.0933
same,solubility (mole fraction),"in methanol, 298.15 K",0.109
same,solubility (mole fraction),"in methanol, 303.15 K",0.123
same,solubility (mole fraction),"in methanol, 308.15 K",0.143
same,solubility (mole fraction),"in methanol, 313.15 K",0.164
same,solubility (mole fraction),"in methanol, 318.15 K",0.19
same,solubility (mole fraction),"in methanol, 323.15 K",0.219
same,solubility (mole fraction),"in methyl acetate, 283.15 K",0.0261
same,solubility (mole fraction),"in methyl acetate, 288.15 K",0.0309
same,solubility (mole fraction),"in methyl acetate, 293.15 K",0.0366
same,solubility (mole fraction),"in methyl acetate, 298.15 K",0.0436
same,solubility (mole fraction),"in methyl acetate, 303.15 K",0.053
same,solubility (mole fraction),"in methyl acetate, 308.15 K",0.0627
same,solubility (mole fraction),"in methyl acetate, 313.15 K",0.0737
same,solubility (mole fraction),"in methyl acetate, 318.15 K",0.0902
same,solubility (mole fraction),"in methyl acetate, 323.15 K",0.105
same,solubility (mole fraction),"in n-butanol, 283.15 K",0.0205
same,solubility (mole fraction),"in n-butanol, 288.15 K",0.0257
same,solubility (mole fraction),"in n-butanol, 293.15 K",0.032
same,solubility (mole fraction),"in n-butanol, 298.15 K",0.04
same,solubility (mole fraction),"in n-butanol, 303.15 K",0.0504
same,solubility (mole fraction),"in n-butanol, 308.15 K",0.0627
same,solubility (mole fraction),"in n-butanol, 313.15 K",0.0786
same,solubility (mole fraction),"in n-butanol, 318.15 K",0.0982
same,solubility (mole fraction),"in n-butanol, 323.15 K",0.122
same,solubility (mole fraction),"in n-pentanol, 283.15 K",0.018
same,solubility (mole fraction),"in n-pentanol, 288.15 K",0.0221
same,solubility (mole fraction),"in n-pentanol, 293.15 K",0.0275
same,solubility (mole fraction),"in n-pentanol, 298.15 K",0.0349
same,solubility (mole fraction),"in n-pentanol, 303.15 K",0.0429
same,solubility (mole fraction),"in n-pentanol, 308.15 K",0.0578
same,solubility (mole fraction),"in n-pentanol, 313.15 K",0.0727
same,solubility (mole fraction),"in n-pentanol, 318.15 K",0.0886
same,solubility (mole fraction),"in n-pentanol, 323.15 K",0.111
same,solubility (mole fraction),"in n-propanol, 283.15 K",0.0261
same,solubility (mole fraction),"in n-propanol, 288.15 K",0.0327
same,solubility (mole fraction),"in n-propanol, 293.15 K",0.0399
same,solubility (mole fraction),"in n-propanol, 298.15 K",0.0504
same,solubility (mole fraction),"in n-propanol, 303.15 K",0.0636
same,solubility (mole fraction),"in n-propanol, 308.15 K",0.0794
same,solubility (mole fraction),"in n-propanol, 313.15 K",0.0986
same,solubility (mole fraction),"in n-propanol, 318.15 K",0.122
same,solubility (mole fraction),"in n-propanol, 323.15 K",0.149
